Like-named read-outs stand apart in the source and are kept apart here.
Legend:
[1] = target: Tb-labeled inactive PDGFRβ (Homo sapiens (Human), UniProt P09619); assay: PDGFRβ LanthaScreen Assay; assay type: binding; details: read-out: PDGFR Lantha IC50
PDGFRβ = PDGFRβ (Rattus norvegicus (Rat), UniProt Q05030); assay: PDGFRβ Cellular Assay (PDGFRb P-Y751 HTRF in A10 cells stimulated with PDGF-BB); assay type: cell-based
Outline: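 Phospho-Y751 PDGFRβ was measured by HTRF in lysates of A10 rat cells. Cells received compound for 3 hours before PDGF-BB stimulation (100 ng/mL working stock).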

PDGFRβ, sequence (Q05030 32-1097): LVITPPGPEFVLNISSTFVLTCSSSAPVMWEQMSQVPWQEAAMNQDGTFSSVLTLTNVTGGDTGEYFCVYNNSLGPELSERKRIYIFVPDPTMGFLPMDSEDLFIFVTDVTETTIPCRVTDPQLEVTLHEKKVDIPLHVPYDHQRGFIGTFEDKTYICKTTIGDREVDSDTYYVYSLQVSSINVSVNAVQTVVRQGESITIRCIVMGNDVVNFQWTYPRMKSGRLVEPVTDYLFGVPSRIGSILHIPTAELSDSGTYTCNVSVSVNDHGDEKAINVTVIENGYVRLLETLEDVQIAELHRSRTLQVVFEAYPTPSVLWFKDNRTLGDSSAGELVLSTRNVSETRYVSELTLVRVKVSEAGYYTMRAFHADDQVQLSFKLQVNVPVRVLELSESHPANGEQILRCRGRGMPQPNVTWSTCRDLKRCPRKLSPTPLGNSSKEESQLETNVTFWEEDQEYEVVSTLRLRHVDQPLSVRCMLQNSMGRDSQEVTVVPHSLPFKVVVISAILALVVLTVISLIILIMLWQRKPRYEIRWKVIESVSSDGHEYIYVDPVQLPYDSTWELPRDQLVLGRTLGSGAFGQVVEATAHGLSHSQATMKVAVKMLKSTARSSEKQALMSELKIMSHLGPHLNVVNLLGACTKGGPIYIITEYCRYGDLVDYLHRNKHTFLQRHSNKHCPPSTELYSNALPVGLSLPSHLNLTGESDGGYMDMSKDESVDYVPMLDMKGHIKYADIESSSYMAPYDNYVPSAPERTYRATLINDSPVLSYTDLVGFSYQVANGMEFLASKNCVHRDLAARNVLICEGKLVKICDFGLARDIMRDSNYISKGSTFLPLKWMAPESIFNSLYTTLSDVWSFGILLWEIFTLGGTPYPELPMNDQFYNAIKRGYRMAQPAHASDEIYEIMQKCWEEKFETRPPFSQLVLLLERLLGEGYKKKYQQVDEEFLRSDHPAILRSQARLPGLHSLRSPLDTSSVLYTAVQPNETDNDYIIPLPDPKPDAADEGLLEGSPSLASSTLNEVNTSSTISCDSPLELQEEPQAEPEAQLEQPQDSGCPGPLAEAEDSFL
Tb-labeled inactive PDGFRβ, sequence (P09619 33-1106): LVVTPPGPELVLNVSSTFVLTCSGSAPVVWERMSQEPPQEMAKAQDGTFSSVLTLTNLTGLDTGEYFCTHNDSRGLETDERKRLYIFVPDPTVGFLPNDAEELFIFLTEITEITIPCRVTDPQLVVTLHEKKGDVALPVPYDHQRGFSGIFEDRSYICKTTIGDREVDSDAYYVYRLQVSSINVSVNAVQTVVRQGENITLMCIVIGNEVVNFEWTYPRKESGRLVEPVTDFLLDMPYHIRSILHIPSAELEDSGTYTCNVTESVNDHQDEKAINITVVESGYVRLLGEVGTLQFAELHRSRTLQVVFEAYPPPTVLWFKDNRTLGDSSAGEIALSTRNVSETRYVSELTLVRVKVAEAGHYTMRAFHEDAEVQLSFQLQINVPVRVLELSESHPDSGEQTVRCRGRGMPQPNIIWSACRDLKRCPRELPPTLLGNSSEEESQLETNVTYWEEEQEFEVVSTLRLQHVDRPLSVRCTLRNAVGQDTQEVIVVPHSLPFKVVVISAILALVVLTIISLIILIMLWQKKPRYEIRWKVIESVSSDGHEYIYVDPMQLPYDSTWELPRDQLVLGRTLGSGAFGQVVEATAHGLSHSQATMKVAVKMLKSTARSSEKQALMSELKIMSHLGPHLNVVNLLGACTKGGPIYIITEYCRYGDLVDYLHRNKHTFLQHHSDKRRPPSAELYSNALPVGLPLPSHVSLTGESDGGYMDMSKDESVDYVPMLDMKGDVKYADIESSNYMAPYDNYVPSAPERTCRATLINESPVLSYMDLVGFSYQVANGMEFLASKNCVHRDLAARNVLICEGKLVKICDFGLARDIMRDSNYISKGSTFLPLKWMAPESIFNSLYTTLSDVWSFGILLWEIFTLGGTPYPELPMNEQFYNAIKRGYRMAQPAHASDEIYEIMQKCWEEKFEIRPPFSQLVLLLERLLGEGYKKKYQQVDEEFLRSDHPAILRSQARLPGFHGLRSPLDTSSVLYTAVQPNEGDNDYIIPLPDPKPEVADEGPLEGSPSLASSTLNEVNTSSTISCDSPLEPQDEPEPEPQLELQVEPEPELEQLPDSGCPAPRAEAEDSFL

Compound	IC50 [1] [µM]	IC50 (PDGFRβ; PDGFR Cellular IC50) [µM]	IC50 (PDGFRβ; read-out: PDGFR Cellular IC50) [µM]
Cc1ncc(NC(=O)CN2CCOC[C@H]2C)cc1NC(=O)c1cnn2cc(-c3cnn(C)c3)sc12 [Example 50, (R)-2-(1-methyl-1H-pyrazol-4-yl)-N-(2-methyl-5-(2-(3-methylmorpholino)acetamido)pyridin-3-yl)pyrazolo[5,1-b]thiazole-7-carboxamide]	0.014	0.0273	
Cc1ncc(NC(=O)CN2CCC3(CC2)COC3)cc1NC(=O)c1cnn2cc(-c3cnn(C)c3)sc12 [Example 46, N-(5-(2-(2-oxa-7-azaspiro[3.5]nonan-7-yl)acetamido)-2-methylpyridin-3-yl)-2-(1-methyl-1H-pyrazol-4-yl)pyrazolo[5,1-b]thiazole-7-carboxamide]	0.089		0.0855
Cc1ncc(NC(=O)CN2C[C@H](C)O[C@@H](C)C2)cc1NC(=O)c1cnn2cc(-c3cnn(C)c3)sc12 [Example 52, N-(5-(2-((2S,6S)-2,6-dimethylmorpholino)acetamido)-2-methylpyridin-3-yl)-2-(1-methyl-1H-pyrazol-4-yl)pyrazolo[5,1-b]thiazole-7-carboxamide]	0.0008		0.0009
Cc1ncc(NC(=O)CN2CCOCC2(C)C)cc1NC(=O)c1cnn2cc(-c3cnn(C)c3)sc12 [Example 68, N-(5-(2-(3,3-dimethylmorpholino)acetamido)-2-methylpyridin-3-yl)-2-(1-methyl-1H-pyrazol-4-yl)pyrazolo[5,1-b]thiazole-7-carboxamide]	0.0081		0.0191
Cc1ncc(NC(=O)CN2CCc3ncccc3C2)cc1NC(=O)c1cnn2cc(-c3cnn(C)c3)sc12 [Example 63, N-(5-(2-(7,8-dihydro-1,6-naphthyridin-6 (5H)-yl)acetamido)-2-methylpyridin-3-yl)-2-(1-methyl-1H-pyrazol-4-yl)pyrazolo[5,1-b]thiazole-7-carboxamide]	0.0429		0.223
Cc1ncc(NC(=O)CN2CCCC23CC3)cc1NC(=O)c1cnn2cc(-c3cnn(CCO)c3)sc12 [Example 87, N-(5-(2-(4-azaspiro[2.4]heptan-4-yl)acetamido)-2-methylpyridin-3-yl)-2-(1-(2-hydroxyethyl)-1H-pyrazol-4-yl)pyrazolo[5,1-b]thiazole-7-carboxamide]	0.0032		0.001
Cc1ncc(NC(=O)OC[C@@H]2CCCN2C)cc1NC(=O)c1cnn2cc(-c3cn(C)nc3C)sc12 [Example 496, (S)-(1-methylpyrrolidin-2-yl)methyl (5-(2-(1,3-dimethyl-1H-pyrazol-4-yl)pyrazolo[5,1-b]thiazole-7-carboxamido)-6-methylpyridin-3-yl)carbamate]	0.0028		0.0056
Cc1ncc(NC(=O)CN2CCOCC2)cc1NC(=O)c1cnn2cc(-c3cnn(C)c3)sc12 [Example 55, 2-(1-methyl-1H-pyrazol-4-yl)-N-(2-methyl-5-(2-morpholinoacetamido)pyridin-3-yl)pyrazolo[5,1-b]thiazole-7-carboxamide]	0.0406		0.0871
COCC1CCCN1CC(=O)Nc1cnc(C)c(NC(=O)c2cnn3cc(-c4cnn(C)c4)sc23)c1 (stereo not shown) [Example 79, N-(5-(2-(2-(methoxymethyl)pyrrolidin-1-yl)acetamido)-2-methylpyridin-3-yl)-2-(1-methyl-1H-pyrazol-4-yl)pyrazolo[5,1-b]thiazole-7-carboxamide]	0.0109		0.0126
Cc1ncc(NC(=O)CN2[C@H](C)COC[C@H]2C)cc1NC(=O)c1cnn2cc(-c3cnn(C)c3)sc12 [Example 51, N-(5-(2-((3R,5R)-3,5-dimethylmorpholino)acetamido)-2-methylpyridin-3-yl)-2-(1-methyl-1H-pyrazol-4-yl)pyrazolo[5,1-b]thiazole-7-carboxamide]	0.0048		0.0068
Cc1ncc(NC(=O)CNCC(C)C)cc1NC(=O)c1cnn2cc(-c3cnn4c3CCC4)sc12 [Example 493, 2-(5,6-dihydro-4H-pyrrolo[1,2-b]pyrazol-3-yl)-N-(5-(2-(isobutylamino)acetamido)-2-methylpyridin-3-yl)pyrazolo[5,1-b]thiazole-7-carboxamide]	0.0019		0.007
Cc1ncc(NC(=O)CNC2(C)CCC2)cc1NC(=O)c1cnn2cc(-c3cnn4c3OCCC4)sc12 [Example 495, 2-(6,7-dihydro-5H-pyrazolo[5,1-b][1,3]oxazin-3-yl)-N-(2-methyl-5-(2-((1-methylcyclobutyl)amino)acetamido)pyridin-3-yl)pyrazolo[5,1-b]thiazole-7-carboxamide]	0.0025		0.0038
Cc1ncc(NC(=O)CN2CCC2(C)C)cc1NC(=O)c1cnn2cc(-c3cnn(C)c3)sc12 [Example 82, N-(5-(2-(2,2-dimethylazetidin-1-yl)acetamido)-2-methylpyridin-3-yl)-2-(1-methyl-1H-pyrazol-4-yl)pyrazolo[5,1-b]thiazole-7-carboxamide]	0.0243		0.0125
COCCn1cc(-c2cn3ncc(C(=O)Nc4cc(NC(=O)CCN5CCC6(CCC6)C5)cnc4C)c3s2)cn1 [Example 90, N-(5-(3-(6-azaspiro[3.4]octan-6-yl)propanamido)-2-methylpyridin-3-yl)-2-(1-(2-methoxyethyl)-1H-pyrazol-4-yl)pyrazolo[5,1-b]thiazole-7-carboxamide]	0.0106		0.0199
Cc1ncc(NC(=O)CN2CCCOCC2)cc1NC(=O)c1cnn2cc(-c3cnn(C)c3)sc12 [Example 80, N-(5-(2-(1,4-oxazepan-4-yl)acetamido)-2-methylpyridin-3-yl)-2-(1-methyl-1H-pyrazol-4-yl)pyrazolo[5,1-b]thiazole-7-carboxamide]	0.0193		0.0378
Cc1ncc(NC(=O)CCN2CCCC2(C)C)cc1NC(=O)c1cnn2cc(-c3cnn(CCO)c3)sc12 [Example 88, N-(5-(3-(2,2-dimethylpyrrolidin-1-yl)propanamido)-2-methylpyridin-3-yl)-2-(1-(2-hydroxyethyl)-1H-pyrazol-4-yl)pyrazolo[5,1-b]thiazole-7-carboxamide]	0.0042		0.141
Cc1ncc(NC(=O)CN2CCO[C@@H](C)C2)cc1NC(=O)c1cnn2cc(-c3cnn(C)c3)sc12 [Example 64, (S)-2-(1-methyl-1H-pyrazol-4-yl)-N-(2-methyl-5-(2-(2-methylmorpholino)acetamido)pyridin-3-yl)pyrazolo[5,1-b]thiazole-7-carboxamide]	0.0063		0.0086
COCCn1cc(-c2cn3ncc(C(=O)Nc4cc(NC(=O)CCN5C[C@@H]6CC[C@H]5C6)cnc4C)c3s2)cn1 [Example 92, N-(5-(3-((1S,4R)-2-azabicyclo[2.2.1]heptan-2-yl)propanamido)-2-methylpyridin-3-yl)-2-(1-(2-methoxyethyl)-1H-pyrazol-4-yl)pyrazolo[5,1-b]thiazole-7-carboxamide]	0.0072		0.122
Cc1ncc(NC(=O)CN2CCC(F)(F)C2)cc1NC(=O)c1cnn2cc(-c3cnn(C)c3)sc12 [Example 73, N-(5-(2-(3,3-difluoropyrrolidin-1-yl)acetamido)-2-methylpyridin-3-yl)-2-(1-methyl-1H-pyrazol-4-yl)pyrazolo[5,1-b]thiazole-7-carboxamide]	0.0017		0.0032
Cc1ncc(C(=O)NCCN2CCCC2(C)C)cc1NC(=O)c1cnn2cc(-c3ccnc(N4CCOCC4)c3)sc12 [Example 483, N-(5-((2-(2,2-dimethylpyrrolidin-1-yl)ethyl)carbamoyl)-2-methylpyridin-3-yl)-2-(2-morpholinopyridin-4-yl)pyrazolo[5,1-b]thiazole-7-carboxamide]	0.0021	0.0177	
Cc1ncc(NC(=O)CN2CCOC(C)(C)C2)cc1NC(=O)c1cnn2cc(-c3cnn(C)c3)sc12 [Example 67, N-(5-(2-(2,2-dimethylmorpholino)acetamido)-2-methylpyridin-3-yl)-2-(1-methyl-1H-pyrazol-4-yl)pyrazolo[5,1-b]thiazole-7-carboxamide]	0.0057		0.0083
Cc1ncc(NC(=O)CN2CCOCC23CCC3)cc1NC(=O)c1cnn2cc(-c3cnn(C)c3)sc12 [Example 78, N-(5-(2-(8-oxa-5-azaspiro[3.5]nonan-5-yl)acetamido)-2-methylpyridin-3-yl)-2-(1-methyl-1H-pyrazol-4-yl)pyrazolo[5,1-b]thiazole-7-carboxamide]	0.0057		0.0121
COCCn1cc(-c2cn3ncc(C(=O)Nc4cc(NC(=O)C[C@H]5CCN(C(C)C)C5)cnc4C)c3s2)cn1 [Example 486, (R)—N-(5-(2-(1-isopropylpyrrolidin-3-yl)acetamido)-2-methylpyridin-3-yl)-2-(1-(2-methoxyethyl)-1H-pyrazol-4-yl)pyrazolo[5,1-b]thiazole-7-carboxamide]	0.127		2
Cc1ncc(NC(=O)CN2CCN(C)C(=O)C2)cc1NC(=O)c1cnn2cc(-c3cnn(C)c3)sc12 [Example 72, 2-(1-methyl-1H-pyrazol-4-yl)-N-(2-methyl-5-(2-(4-methyl-3-oxopiperazin-1-yl)acetamido)pyridin-3-yl)pyrazolo[5,1-b]thiazole-7-carboxamide]	0.112		> 3
Cc1ncc(NC(=O)CN2CCO[C@H](C)C2)cc1NC(=O)c1cnn2cc(-c3cnn(C)c3)sc12 [Example 54, (R)-2-(1-methyl-1H-pyrazol-4-yl)-N-(2-methyl-5-(2-(2-methylmorpholino)acetamido)pyridin-3-yl)pyrazolo[5,1-b]thiazole-7-carboxamide]	0.0128		0.0114
CC[C@H]1COCCN1CC(=O)Nc1cnc(C)c(NC(=O)c2cnn3cc(-c4cnn(C)c4)sc23)c1 [Example 70, (S)—N-(5-(2-(3-ethylmorpholino)acetamido)-2-methylpyridin-3-yl)-2-(1-methyl-1H-pyrazol-4-yl)pyrazolo[5,1-b]thiazole-7-carboxamide]	0.0029		0.0064

Reference: patent US20240109917A1 (ACTELION PHARMACEUTICALS LTD, priority 2020, published 2024)
